Measurements reported in the supplement of paper PMC10307832.

Key:
Experiment in all cases: relative viability (nuclei count vs DMSO), 5 days (fraction); higher = more cells survive
SGI-1776 + Dasatinib = compound: CN1CCC(CNc2ccc3ncc(-c4cccc(OC(F)(F)F)c4)n3n2)CC1 [SGI-1776] + Cc1nc(Nc2ncc(C(=O)Nc3c(C)cccc3Cl)s2)cc(N2CCN(CCO)CC2)n1 [Dasatinib] (partner 0.075 µM)
Method in brief: (§1)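 Medians of duplicate plates are given as relative viability. That measure is the nuclei count in treated wells divided by the count in vehicle wells. Counts were taken on 4× images of lung cancer cell lines in 1536-well plates, 5 days after pin-tool dosing the day after seeding with one drug alone or a fixed anchor-drug dose plus five library-drug doses (not always all listed) in √10 steps.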

[1] = compound: C1COCCN1C2=NC(=NC3=C2OC4=C3C=CC=N4)C5=CC(=CC=C5)NC(=O)C6=CN=C(C=C6)N + N=C(N)NC(=N)NCCc1ccccc1 [Phenformin] (partner 250 µM)
Method in brief: as §1

Entinostat + Bortezomib = compound: Nc1ccccc1NC(=O)c1ccc(CNC(=O)OCc2cccnc2)cc1 [Entinostat] + CC(C)C[C@H](NC(=O)[C@H](Cc1ccccc1)NC(=O)c1cnccn1)B(O)O [Bortezomib] (partner 0.002 µM)
Method in brief: as §1

[2] = compound: C1COCCN1C2=NC(=NC3=C2OC4=C3C=CC=N4)C5=CC(=CC=C5)NC(=O)C6=CN=C(C=C6)N + C[C@@H](Oc1cc(-c2cnn(C3CCNCC3)c2)cnc1N)c1c(Cl)ccc(F)c1Cl [Crizotinib] (partner 1 µM)
Method in brief: as §1

Cell Line	relative viability (SGI-1776 + Dasatinib; first compound 0.08 µM)	relative viability (SGI-1776 + Dasatinib; first compound 0.8 µM)	relative viability (SGI-1776 + Dasatinib; first compound 2.53 µM)	relative viability (SGI-1776 + Dasatinib; first compound 8 µM)	relative viability ([1]; first compound 0.02 µM)	relative viability ([1]; first compound 0.06325 µM)	relative viability ([1]; first compound 0.2 µM)	relative viability ([1]; first compound 0.6325 µM)	relative viability ([1]; first compound 2 µM)	relative viability (Entinostat + Bortezomib; first compound 0.02 µM)	relative viability (Entinostat + Bortezomib; first compound 0.06325 µM)	relative viability (Entinostat + Bortezomib; first compound 0.2 µM)	relative viability (Entinostat + Bortezomib; first compound 0.6325 µM)	relative viability (Entinostat + Bortezomib; first compound 2 µM)	relative viability ([2]; first compound 0.02 µM)	relative viability ([2]; first compound 0.06325 µM)	relative viability ([2]; first compound 0.2 µM)	relative viability ([2]; first compound 0.6325 µM)	relative viability ([2]; first compound 2 µM)
201T	0.603	0.555	0.47	0.471	0.452	0.448	0.443	0.428	0.33	1.09	1.11	1.05	1.01	0.872	1.02	1.05	1.03	1.01	0.736
A549						0.159	0.142	0.206	0.063						1	0.903	0.66	0.764	0.302
A-427	0.736	0.693	0.665	0.499	0.397	0.359	0.275	0.245	0.292	0.99	0.975	0.966	0.916	0.632	0.895	0.881	0.738	0.809	0.406
ABC-1	0.502	0.613	0.508	0.465	0.225	0.242	0.241	0.235	0.207	0.338	0.327	0.331	0.216	0.277	1.02	1.29	0.93	1.33	0.666
BEN	0.399	0.313	0.285	0.302	0.278	0.263	0.269	0.253	0.318	0.96	0.797	0.741	0.577	0.247	0.928	0.841	0.932	0.821	0.504
CAL-12T	0.633	0.351	0.348	0.246	0.525	0.561	0.533	0.498	0.247	1.19	0.973	0.96	0.99	0.665	0.843	0.634	0.688	0.559	0.507
COR-L23	0.514	0.546	0.464	0.322	0.426	0.445	0.418	0.433	0.218	0.994	0.881	0.964	0.423	0.147	0.68	0.748	0.716	0.809	0.43
COR-L 105	0.343	0.323	0.284	0.254	0.402	0.517	0.404	0.41	0.274	0.608	0.914	0.926	0.484	0.313	0.792	0.722	0.567	0.752	0.481
Calu-6										1.02	1.02	0.944	0.69	0.504	1.1	0.876	0.758	0.822	0.454
ChaGo-K-1	0.652	0.647	0.561	0.416	0.464	0.583	0.533	0.456	0.459	1.41	1.02	1.09	0.94	0.623	1.2	1.14	1.01	1.26	0.717
EBC-1										0.564	0.599	0.293	0.196	0.176	0.209	0.196	0.197	0.168	0.172
EKVX	0.475	0.547	0.599	0.413	0.223	0.21	0.207	0.216	0.181	1.1	0.992	0.999	0.853	0.445	1.06	0.985	1.03	1.03	0.62
EMC-BAC-2	0.361	0.284	0.314	0.288	0.543	0.56	0.451	0.469	0.304	1.11	1.16	1.1	0.898	0.516	0.8	0.792	0.76	0.805	0.598
EPLC-272H	0.381	0.365	0.264	0.314	0.306	0.305	0.26	0.241	0.282	0.889	0.848	0.879	0.299	0.204	0.977	1.03	1.01	1.04	0.722
H3255	0.4	0.371	0.378	0.277	0.362	0.357	0.368	0.326	0.338	0.797	0.844	0.577	0.401	0.28	0.729	0.805	0.758	0.844	0.586
HARA	0.31	0.178	0.207	0.289	0.413	0.586	0.487	0.431	0.363	1.13	1.1	1.11	1.04	0.465	1.01	1.23	1.06	0.978	0.662
HCC-15	0.577	0.551	0.466	0.382	0.546	0.528	0.462	0.388	0.25	1.02	0.945	0.876	0.403	0.413	0.824	0.938	0.843	0.819	0.545
HCC-44					0.182	0.191	0.137	0.157	0.171	0.861	0.758	0.698	0.373	0.269	0.879	0.927	0.835	0.887	0.624

Cell Line	relative viability (SGI-1776 + Dasatinib; first compound 0.08 µM)	relative viability (SGI-1776 + Dasatinib; first compound 0.8 µM)	relative viability (SGI-1776 + Dasatinib; first compound 2.53 µM)	relative viability (SGI-1776 + Dasatinib; first compound 8 µM)	relative viability ([1]; first compound 0.02 µM)	relative viability ([1]; first compound 0.06325 µM)	relative viability ([1]; first compound 0.2 µM)	relative viability ([1]; first compound 0.6325 µM)	relative viability ([1]; first compound 2 µM)	relative viability (Entinostat + Bortezomib; first compound 0.02 µM)	relative viability (Entinostat + Bortezomib; first compound 0.06325 µM)	relative viability (Entinostat + Bortezomib; first compound 0.2 µM)	relative viability (Entinostat + Bortezomib; first compound 0.6325 µM)	relative viability (Entinostat + Bortezomib; first compound 2 µM)	relative viability ([2]; first compound 0.02 µM)	relative viability ([2]; first compound 0.06325 µM)	relative viability ([2]; first compound 0.2 µM)	relative viability ([2]; first compound 0.6325 µM)	relative viability ([2]; first compound 2 µM)
HCC-78	0.416	0.455	0.369	0.366	0.716	0.654	0.761	0.681	0.642	0.551	0.389	0.27	0.217	0.213	0.352	0.327	0.329	0.282	0.261
HCC-366	0.595	0.669	0.517	0.524	0.63	0.709	0.644	0.644	0.573	1.08	1.15	0.831	0.41	0.0738	0.594	0.808	0.575	0.629	0.327
HCC-827	0.352	0.33	0.255	0.227	0.384	0.43	0.419	0.416	0.386	0.979	1.02	0.976	0.979	0.539	0.905	0.97	0.91	0.985	0.93
IA-LM										0.814	0.842	1.03	0.597	0.447	1.05	0.733	0.619	0.58	0.369
LK-2	0.301	0.354	0.253	0.173	0.538	0.551	0.249	0.2	0.252						0.21	0.247	0.203	0.279	0.258
NCI-H358	0.197	0.186	0.158	0.133		0.36	0.269	0.248	0.169						0.64	0.586	0.455	0.559	0.38
NCI-H522	0.828	0.849	0.843	0.729	0.638	0.701	0.63	1.49	0.599										
NCI-H1299										1.04	0.985	0.934	0.858	0.732	0.942	0.95	0.937	0.958	0.669
NCI-H1395	0.381	0.379	0.394	0.373	0.396	0.451	0.461	0.415	0.384										
NCI-H1623	0.658	0.608	0.559	0.538	0.634	0.587	0.6	0.562	0.407										
NCI-H1703										0.314	0.383	0.308	0.265	0.149	0.357	0.731	0.506	0.401	0.416
NCI-H1793	0.395	0.332	0.382	0.405	0.393	0.483	0.404	0.372	0.277										
NCI-H1944	0.223	0.2	0.223	0.173	0.217	0.244	0.182	0.194	0.142						1.23	1.34	1.09	1.25	0.887
NCI-H2170	0.651	0.527	0.354	0.434	0.427	0.439	0.408	0.407	0.388						1.31	1.37	1.25	1.12	0.668
NCI-H2342	0.364	0.326	0.289	0.301	0.651	0.564	0.565	0.695	0.576										
SK-MES-1	0.476	0.415	0.35	0.211	0.663	0.766	0.729	0.618	0.462						1.09	1.11	0.975	0.884	0.7
SW 900	0.542	0.387	0.56	0.301	0.425	0.674	0.557	0.376	0.345										
